In brackets after ≈: the same amount, converted by molar mass.

In data set [1] the test system is Mycobacterium tuberculosis H37RV. Description: Antibiotic test by using an agar plate dilution method. Type of data set: cell-based. Conditions: 336 h, Culture medium 7H11, inoculum about 10^6 CFU/ml (5 μl), cultivated at 37° C. for 14 days, read-out: Minimum inhibitory concentration.

On to `C[C@]1(Cn2cc([N+](=O)[O-])nc2Br)CO1`, for which the melting point was 93 to 94 °C.
With `C[C@]1(CN2CCN(c3ccc(OC(F)(F)F)cc3)CC2)Cn2cc([N+](=O)[O-])nc2O1` [Reference Example 7, (S)-2-[4-(4-trifluoromethoxyphenyl)piperazin-1-ylmethyl]-2-methyl-6-nitro-2,3-dihydroimidazo[2,1-b]oxazole], the melting point lay in the range of 129 to 130 °C. Also, the MIC in data set [1] worked out at 0.024 mg/L (≈ 0.0562 µM).
`C[C@]1(Cn2cc([N+](=O)[O-])nc2Cl)CO1`: the melting point was 65.5 to 67 °C.
Still for that read-out and setting: the same measure for `C[C@@]1(Cn2cc([N+](=O)[O-])nc2Br)CO1`: 93 to 94 °C.

These data come from patent US8129544B2, “1-substituted-4-nitroimidazole compound and method for preparing the same” (Otsuka Pharmaceutical Co., Ltd., priority 2002, dated 2012).
